# Results reported in paper PMC11233931, “Remodeling tumor‐associated macrophage for anti‐cancer effects by rational design of irreversible inhibition of mitogen‐activated protein kinase‐activated protein kinase 2” (MedComm, 2024).
# Assays:
# Experiment in all cases: Eurofins kinase selectivity profile against 380 other human recombinant kinases (Table S2)
# Type in all cases: biochemical
# [1] = target: T1, 380 human recombinant protein kinases (Homo sapiens, UniProt Q9H4B4); conditions: Plk3(h), read-out: Inhibition rate
# T1 construct: purchased Eurofins (Celle Lévescault)
# Procedure, shortened: (§1)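 Commercial selectivity screen of the test compound against a panel of 380 human recombinant protein kinases, run by an outside contractor at several compound concentrations to check whether its potency was specific for MK2.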
# [2] = target: T2, 380 human recombinant protein kinases (Homo sapiens, UniProt Q9H2K8); conditions: TAO3(h), read-out: Inhibition rate (%)
# T2 construct: purchased Eurofins (Celle Lévescault)
# T2 sequence (Q9H2K8 1-898): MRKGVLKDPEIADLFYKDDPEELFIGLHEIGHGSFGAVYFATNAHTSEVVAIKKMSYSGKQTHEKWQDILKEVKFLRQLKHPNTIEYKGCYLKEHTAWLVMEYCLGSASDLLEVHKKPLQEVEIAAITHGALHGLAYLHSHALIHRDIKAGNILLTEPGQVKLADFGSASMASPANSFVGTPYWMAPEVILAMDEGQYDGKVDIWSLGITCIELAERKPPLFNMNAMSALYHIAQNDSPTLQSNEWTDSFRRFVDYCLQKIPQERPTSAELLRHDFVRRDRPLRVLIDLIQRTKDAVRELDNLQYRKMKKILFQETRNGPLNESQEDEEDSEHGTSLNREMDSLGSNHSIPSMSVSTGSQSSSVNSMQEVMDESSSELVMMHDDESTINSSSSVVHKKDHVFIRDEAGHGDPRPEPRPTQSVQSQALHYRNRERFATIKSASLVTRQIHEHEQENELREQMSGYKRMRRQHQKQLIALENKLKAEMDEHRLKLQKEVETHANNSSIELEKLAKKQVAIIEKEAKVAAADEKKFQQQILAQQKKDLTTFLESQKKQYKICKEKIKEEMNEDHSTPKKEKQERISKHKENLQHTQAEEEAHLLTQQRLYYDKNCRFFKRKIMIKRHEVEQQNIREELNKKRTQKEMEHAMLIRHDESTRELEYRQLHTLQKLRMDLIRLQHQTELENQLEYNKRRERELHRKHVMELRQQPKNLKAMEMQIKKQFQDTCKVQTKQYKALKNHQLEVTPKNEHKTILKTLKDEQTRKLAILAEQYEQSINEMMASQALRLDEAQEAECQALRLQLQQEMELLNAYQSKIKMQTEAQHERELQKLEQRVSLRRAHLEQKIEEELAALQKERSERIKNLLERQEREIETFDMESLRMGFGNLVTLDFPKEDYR
# Procedure, shortened: as §1
# [3] = target: T3, 380 human recombinant protein kinases (Homo sapiens, UniProt Q9UPE1); conditions: MSSK1(h), read-out: Inhibition rate
# T3 construct: purchased Eurofins (Celle Lévescault)
# Procedure, shortened: as §1
# [4] = target: T4, 380 human recombinant protein kinases (Homo sapiens, UniProt Q16620); conditions: TrkB(h), read-out: Inhibition rate (%)
# T4 construct: purchased Eurofins (Celle Lévescault)
# Procedure, shortened: as §1
# [5] = target: T5, 380 human recombinant protein kinases (Homo sapiens, UniProt P19784); conditions: CK2α2(h), read-out: Inhibition rate
# T5 construct: purchased Eurofins (Celle Lévescault)
# Procedure, shortened: as §1
# [6] = target: T6, 380 human recombinant protein kinases (Homo sapiens, UniProt Q8NG66); conditions: NEK11(h), read-out: Inhibition rate
# T6 construct: purchased Eurofins (Celle Lévescault)
# T6 sequence (Q8NG66 1-645): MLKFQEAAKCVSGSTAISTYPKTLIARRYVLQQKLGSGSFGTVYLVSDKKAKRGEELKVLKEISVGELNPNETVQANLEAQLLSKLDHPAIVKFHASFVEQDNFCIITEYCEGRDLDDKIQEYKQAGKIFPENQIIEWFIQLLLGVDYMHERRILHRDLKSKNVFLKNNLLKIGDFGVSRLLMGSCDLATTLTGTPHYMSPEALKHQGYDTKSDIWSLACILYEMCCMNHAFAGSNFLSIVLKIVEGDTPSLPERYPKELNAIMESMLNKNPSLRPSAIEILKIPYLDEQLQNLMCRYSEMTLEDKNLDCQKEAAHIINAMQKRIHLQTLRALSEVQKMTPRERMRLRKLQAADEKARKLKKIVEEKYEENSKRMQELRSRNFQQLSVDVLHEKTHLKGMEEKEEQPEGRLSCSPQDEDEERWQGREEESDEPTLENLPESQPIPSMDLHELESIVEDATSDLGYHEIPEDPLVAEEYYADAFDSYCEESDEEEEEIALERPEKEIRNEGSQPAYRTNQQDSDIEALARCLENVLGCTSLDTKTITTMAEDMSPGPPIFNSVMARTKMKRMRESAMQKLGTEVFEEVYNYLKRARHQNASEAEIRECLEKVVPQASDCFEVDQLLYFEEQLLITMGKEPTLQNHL
# Procedure, shortened: as §1
# [7] = target: T7, 380 human recombinant protein kinases (Homo sapiens, UniProt Q15119); conditions: PDHK2(h), read-out: Inhibition rate
# T7 construct: purchased Eurofins (Celle Lévescault)
# Procedure, shortened: as §1
# [8] = target: T8, 380 human recombinant protein kinases (Homo sapiens, UniProt P06493); conditions: CDK1/cyclinB(h), read-out: Inhibition rate
# T8 construct: purchased Eurofins (Celle Lévescault)
# Procedure, shortened: as §1
# [9] = target: T9, 380 human recombinant protein kinases (Homo sapiens, UniProt Q86Z02); conditions: HIPK1(h), read-out: Inhibition rate
# T9 construct: purchased Eurofins (Celle Lévescault)
# Procedure, shortened: as §1
# T5 sequence (P19784 whole entry): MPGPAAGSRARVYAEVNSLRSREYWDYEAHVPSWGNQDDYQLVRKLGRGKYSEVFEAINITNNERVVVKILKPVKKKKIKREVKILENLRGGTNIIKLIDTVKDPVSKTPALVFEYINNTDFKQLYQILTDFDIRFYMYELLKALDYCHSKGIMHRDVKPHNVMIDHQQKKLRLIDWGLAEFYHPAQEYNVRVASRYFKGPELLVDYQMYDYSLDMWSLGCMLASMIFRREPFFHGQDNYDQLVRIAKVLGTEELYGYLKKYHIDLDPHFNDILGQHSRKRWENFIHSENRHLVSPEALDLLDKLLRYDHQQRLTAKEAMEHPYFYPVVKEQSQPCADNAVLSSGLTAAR
# T8 sequence (P06493 whole entry): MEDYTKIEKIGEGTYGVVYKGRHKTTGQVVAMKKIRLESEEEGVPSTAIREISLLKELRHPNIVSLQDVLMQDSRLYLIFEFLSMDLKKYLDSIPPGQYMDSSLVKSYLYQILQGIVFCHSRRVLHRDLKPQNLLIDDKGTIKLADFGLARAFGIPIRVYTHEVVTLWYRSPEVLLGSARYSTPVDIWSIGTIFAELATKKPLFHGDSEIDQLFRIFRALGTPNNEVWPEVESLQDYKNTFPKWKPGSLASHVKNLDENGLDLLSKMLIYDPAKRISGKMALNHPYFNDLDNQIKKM
# T9 sequence (Q86Z02 whole entry): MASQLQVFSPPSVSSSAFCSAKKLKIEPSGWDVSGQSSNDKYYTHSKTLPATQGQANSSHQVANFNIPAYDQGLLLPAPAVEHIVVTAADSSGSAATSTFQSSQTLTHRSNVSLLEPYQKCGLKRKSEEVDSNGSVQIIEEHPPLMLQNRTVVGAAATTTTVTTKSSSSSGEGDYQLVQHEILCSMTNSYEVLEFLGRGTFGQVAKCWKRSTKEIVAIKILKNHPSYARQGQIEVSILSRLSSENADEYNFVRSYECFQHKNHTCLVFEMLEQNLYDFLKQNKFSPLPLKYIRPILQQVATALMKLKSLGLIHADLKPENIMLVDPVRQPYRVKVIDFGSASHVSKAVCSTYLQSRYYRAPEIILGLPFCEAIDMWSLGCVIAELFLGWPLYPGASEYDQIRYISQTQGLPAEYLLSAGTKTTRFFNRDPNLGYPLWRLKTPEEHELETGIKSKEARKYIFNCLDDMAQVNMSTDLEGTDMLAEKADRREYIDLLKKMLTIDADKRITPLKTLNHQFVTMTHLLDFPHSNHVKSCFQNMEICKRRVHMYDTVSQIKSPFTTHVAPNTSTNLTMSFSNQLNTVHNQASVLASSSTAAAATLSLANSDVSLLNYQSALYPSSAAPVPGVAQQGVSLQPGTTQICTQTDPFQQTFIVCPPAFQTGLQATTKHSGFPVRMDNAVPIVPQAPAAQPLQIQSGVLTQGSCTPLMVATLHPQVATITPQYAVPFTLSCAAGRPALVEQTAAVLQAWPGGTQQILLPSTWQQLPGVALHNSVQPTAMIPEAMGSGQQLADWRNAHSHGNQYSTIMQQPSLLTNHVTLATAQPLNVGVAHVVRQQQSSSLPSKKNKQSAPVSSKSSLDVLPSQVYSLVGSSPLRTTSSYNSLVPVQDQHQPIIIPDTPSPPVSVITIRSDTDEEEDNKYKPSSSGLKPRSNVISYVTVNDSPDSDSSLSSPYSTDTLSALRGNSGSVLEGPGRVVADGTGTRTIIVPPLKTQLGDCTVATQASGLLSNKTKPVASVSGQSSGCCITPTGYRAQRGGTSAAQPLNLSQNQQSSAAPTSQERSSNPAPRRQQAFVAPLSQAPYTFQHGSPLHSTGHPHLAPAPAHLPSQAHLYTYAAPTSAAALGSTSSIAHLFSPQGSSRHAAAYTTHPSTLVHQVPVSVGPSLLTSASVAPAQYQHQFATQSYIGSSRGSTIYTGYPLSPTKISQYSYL
# T1 sequence (Q9H4B4 whole entry): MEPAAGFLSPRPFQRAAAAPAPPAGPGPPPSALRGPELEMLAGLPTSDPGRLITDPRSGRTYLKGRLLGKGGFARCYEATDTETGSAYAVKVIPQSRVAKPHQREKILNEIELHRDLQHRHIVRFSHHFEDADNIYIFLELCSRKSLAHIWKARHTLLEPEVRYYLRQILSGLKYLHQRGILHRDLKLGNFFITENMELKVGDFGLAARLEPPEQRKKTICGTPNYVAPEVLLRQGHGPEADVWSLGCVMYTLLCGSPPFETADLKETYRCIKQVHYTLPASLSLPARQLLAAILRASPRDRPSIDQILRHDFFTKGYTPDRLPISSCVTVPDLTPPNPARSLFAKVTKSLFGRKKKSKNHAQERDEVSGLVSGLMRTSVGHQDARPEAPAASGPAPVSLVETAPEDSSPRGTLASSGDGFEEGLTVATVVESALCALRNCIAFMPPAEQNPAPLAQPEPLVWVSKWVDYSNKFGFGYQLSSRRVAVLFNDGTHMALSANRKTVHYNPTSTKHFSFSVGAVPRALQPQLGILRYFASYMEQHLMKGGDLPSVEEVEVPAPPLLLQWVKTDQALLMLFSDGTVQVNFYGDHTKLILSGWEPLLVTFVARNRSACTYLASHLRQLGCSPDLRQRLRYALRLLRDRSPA
# T4 sequence (Q16620 32-822): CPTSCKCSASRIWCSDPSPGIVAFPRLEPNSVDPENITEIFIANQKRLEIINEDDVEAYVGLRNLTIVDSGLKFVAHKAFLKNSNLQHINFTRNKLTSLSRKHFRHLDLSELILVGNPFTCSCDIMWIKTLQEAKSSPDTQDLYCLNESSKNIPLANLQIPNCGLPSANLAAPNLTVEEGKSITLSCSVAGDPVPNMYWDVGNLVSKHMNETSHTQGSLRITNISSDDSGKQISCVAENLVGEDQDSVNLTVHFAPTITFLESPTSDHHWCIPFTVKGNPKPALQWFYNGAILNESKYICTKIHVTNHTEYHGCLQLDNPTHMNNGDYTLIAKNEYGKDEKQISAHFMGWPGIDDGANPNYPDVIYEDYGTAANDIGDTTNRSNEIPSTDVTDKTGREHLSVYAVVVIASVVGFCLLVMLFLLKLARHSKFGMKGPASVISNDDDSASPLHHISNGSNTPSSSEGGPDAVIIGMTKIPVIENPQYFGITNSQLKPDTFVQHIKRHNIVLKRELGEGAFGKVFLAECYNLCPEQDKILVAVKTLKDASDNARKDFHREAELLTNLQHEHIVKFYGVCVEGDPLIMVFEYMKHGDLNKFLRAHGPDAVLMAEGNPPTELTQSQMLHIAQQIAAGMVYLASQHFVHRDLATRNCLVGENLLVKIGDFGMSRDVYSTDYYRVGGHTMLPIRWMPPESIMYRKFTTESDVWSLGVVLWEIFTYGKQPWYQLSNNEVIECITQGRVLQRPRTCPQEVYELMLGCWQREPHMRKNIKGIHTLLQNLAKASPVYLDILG
# T3 sequence (Q9UPE1 whole entry): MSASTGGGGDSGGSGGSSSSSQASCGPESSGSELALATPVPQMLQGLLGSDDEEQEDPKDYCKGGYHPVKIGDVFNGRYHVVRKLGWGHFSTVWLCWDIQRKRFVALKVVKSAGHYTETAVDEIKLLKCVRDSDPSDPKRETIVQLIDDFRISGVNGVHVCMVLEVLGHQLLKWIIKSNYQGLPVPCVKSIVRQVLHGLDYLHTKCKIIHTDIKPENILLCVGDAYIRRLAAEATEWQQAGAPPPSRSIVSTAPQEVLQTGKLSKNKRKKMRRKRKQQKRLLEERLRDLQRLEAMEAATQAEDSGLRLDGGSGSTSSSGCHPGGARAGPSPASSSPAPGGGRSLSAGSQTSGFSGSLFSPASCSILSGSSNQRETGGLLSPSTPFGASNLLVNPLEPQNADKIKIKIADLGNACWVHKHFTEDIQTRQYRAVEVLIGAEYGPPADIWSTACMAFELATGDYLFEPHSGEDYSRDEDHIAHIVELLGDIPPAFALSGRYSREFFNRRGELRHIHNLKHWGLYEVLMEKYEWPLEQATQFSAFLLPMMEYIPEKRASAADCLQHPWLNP
compound,measurement,setting,value
C=CC(=O)Nc1cc(-c2cc(-c3cc4c([nH]3)CCNC4=O)ccn2)ccc1OC(F)(F)F [compound 11],inhibition at 0.01 µM,[1]; 10 nM,10%
same,inhibition at 0.1 µM,[1]; 100 nM,6%
same,inhibition at 1 µM,[1]; 1000 nM,15%
same,inhibition at 0.01 µM,[2]; 10 nM,-4%
same,inhibition at 0.1 µM,[2]; 100 nM,0%
same,inhibition at 1 µM,[2]; 1000 nM,7%
same,inhibition at 0.01 µM,[3]; 10 nM,-7%
same,inhibition at 0.1 µM,[3]; 100 nM,-4%
same,inhibition at 1 µM,[3]; 1000 nM,0%
same,inhibition at 0.01 µM,[4]; 10 nM,-6%
same,inhibition at 0.1 µM,[4]; 100 nM,-9%
same,inhibition at 1 µM,[4]; 1000 nM,-20%
same,inhibition at 0.01 µM,[5]; 10 nM,10%
same,inhibition at 0.1 µM,[5]; 100 nM,14%
same,inhibition at 1 µM,[5]; 1000 nM,26%
same,inhibition at 0.01 µM,[6]; 10 nM,-1%
same,inhibition at 0.1 µM,[6]; 100 nM,0%
same,inhibition at 1 µM,[6]; 1000 nM,-4%
same,inhibition at 0.01 µM,[7]; 10 nM,-8%
same,inhibition at 0.1 µM,[7]; 100 nM,6%
same,inhibition at 1 µM,[7]; 1000 nM,0%
same,inhibition at 0.01 µM,[8]; 10 nM,0%
same,inhibition at 0.1 µM,[8]; 100 nM,10%
same,inhibition at 1 µM,[8]; 1000 nM,43%
same,inhibition at 0.01 µM,[9]; 10 nM,-21%
same,inhibition at 0.1 µM,[9]; 100 nM,-9%
same,inhibition at 1 µM,[9]; 1000 nM,-3%
